# Laboratory results published in US9096605B2, “Pyrazolopyrimidine derivatives as PI3 kinase inhibitors” (GlaxoSmithKline LLC, priority 2011, dated 2015).
# What was measured:
# [1] = system: pAKT(Ser473) in MDA-MB-468 cells; assay: pAKT(Ser473) assay in MDA-MB-468 cells; type: cell-based; details: Homo sapiens, 0.5 h, compound treatment 30 minutes, MSD ELISA phospho AKT(Ser473), given as ranges, read-out: Cell Activity—pAKT IC50 in MDA-MB-468
# PI3K-beta = target: T1, PI3K-beta (Homo sapiens, UniProt P42338); assay: HTRF in vitro profiling assay for PI3K inhibition (beta isoform); type: biochemical; details: PI3K-beta enzyme pIC50 range, 200 pM enzyme, 100 uM ATP, 10 uM PIP2, 150 mM NaCl, corrected pIC50, read-out: PI3K-b Enz Activity
# T1 construct: made in house
# Summary of the method: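 PI3Kβ at 200 pM, preincubated 15 min with compound (11-point 3-fold series), then reacted 1 h at room temperature with 10 uM PIP2 and 100 uM ATP in buffer with 150 mM NaCl and 5 mM DTT. PIP3 formed measured by HTRF displacement of biotin-PIP3 from a GST-PH domain complex (665/620 nm).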
# T1 sequence (P42338 whole entry, canonical isoform): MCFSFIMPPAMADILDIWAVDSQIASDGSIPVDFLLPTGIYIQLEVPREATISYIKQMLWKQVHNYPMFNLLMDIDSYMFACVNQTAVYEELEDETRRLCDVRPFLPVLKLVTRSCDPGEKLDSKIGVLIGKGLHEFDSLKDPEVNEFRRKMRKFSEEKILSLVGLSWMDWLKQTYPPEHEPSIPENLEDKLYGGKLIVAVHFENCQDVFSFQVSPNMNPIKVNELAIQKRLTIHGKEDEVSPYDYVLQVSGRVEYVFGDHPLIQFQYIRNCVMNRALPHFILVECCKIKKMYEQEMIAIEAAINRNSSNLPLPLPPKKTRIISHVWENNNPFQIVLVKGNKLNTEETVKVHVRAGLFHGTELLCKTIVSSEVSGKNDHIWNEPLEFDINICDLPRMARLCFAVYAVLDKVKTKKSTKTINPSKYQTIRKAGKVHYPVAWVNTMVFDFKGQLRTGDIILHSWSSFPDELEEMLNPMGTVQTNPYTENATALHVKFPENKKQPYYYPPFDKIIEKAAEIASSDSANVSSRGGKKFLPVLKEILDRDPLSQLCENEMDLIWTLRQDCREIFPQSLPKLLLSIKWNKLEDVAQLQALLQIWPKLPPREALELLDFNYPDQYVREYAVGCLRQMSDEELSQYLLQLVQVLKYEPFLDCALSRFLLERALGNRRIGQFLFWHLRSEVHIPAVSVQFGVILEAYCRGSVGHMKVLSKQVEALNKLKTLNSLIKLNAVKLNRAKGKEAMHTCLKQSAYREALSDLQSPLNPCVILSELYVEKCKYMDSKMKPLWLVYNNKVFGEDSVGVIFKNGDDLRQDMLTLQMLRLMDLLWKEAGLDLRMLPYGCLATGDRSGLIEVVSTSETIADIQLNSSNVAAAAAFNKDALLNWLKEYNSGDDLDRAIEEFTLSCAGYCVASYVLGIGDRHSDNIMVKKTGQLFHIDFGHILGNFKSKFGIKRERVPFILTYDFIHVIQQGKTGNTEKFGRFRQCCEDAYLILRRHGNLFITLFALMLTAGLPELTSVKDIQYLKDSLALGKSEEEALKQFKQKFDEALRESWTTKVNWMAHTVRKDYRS
# T1 sequence (P27986 whole entry partner, canonical isoform): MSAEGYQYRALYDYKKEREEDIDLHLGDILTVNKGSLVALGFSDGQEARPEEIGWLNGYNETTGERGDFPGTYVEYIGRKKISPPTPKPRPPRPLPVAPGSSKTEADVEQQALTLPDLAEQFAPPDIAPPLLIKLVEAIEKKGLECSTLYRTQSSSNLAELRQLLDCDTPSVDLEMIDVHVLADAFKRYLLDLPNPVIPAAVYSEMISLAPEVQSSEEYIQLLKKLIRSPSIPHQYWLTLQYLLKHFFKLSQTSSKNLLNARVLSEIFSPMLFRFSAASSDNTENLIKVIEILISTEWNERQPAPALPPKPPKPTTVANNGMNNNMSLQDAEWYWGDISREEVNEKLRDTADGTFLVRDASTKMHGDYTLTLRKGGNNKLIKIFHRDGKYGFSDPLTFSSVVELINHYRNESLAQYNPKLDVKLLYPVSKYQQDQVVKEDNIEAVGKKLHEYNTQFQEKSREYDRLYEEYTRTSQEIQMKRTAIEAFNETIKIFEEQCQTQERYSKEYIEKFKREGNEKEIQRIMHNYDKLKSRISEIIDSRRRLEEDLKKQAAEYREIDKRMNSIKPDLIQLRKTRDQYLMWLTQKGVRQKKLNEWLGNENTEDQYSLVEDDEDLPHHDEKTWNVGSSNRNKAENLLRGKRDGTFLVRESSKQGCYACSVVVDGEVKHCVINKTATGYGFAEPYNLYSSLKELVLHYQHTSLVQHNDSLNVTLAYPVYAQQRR
IC50 [1] [nM],IC50 (PI3K-beta) [nM],Structure (SMILES)
6000 to 10000,1.26 to 10,"Cc1nn2c(-c3nc[nH]n3)cc(N3CCOCC3)nc2c1Cc1cccc(C(F)(F)F)c1C [Example 41, 4-(2-methyl-3-(2-methyl-3-(trifluoromethyl)benzyl)-7-(1H-1,2,4-triazol-3-yl)pyrazolo[1,5-a]pyrimidin-5-yl)morpholine]"
< 1000,1.26 to 10,"Cc1c(Cc2c(N)nn3c(O)cc(N4CCOCC4)nc23)cccc1C(F)(F)F [Example 24, 2-amino-3-(2-methyl-3-(trifluoromethyl)benzyl)-5-morpholinopyrazolo[1,5-a]pyrimidin-7-ol]"
